Target: T1, Full-length glucokinase (beta cell isoform) (Homo sapiens, UniProt P35557)
T1 construct: Full-length glucokinase (beta cell isoform) was His-tagged at N-terminus; His tag (N); made in house
T1 sequence (P35557 1-465): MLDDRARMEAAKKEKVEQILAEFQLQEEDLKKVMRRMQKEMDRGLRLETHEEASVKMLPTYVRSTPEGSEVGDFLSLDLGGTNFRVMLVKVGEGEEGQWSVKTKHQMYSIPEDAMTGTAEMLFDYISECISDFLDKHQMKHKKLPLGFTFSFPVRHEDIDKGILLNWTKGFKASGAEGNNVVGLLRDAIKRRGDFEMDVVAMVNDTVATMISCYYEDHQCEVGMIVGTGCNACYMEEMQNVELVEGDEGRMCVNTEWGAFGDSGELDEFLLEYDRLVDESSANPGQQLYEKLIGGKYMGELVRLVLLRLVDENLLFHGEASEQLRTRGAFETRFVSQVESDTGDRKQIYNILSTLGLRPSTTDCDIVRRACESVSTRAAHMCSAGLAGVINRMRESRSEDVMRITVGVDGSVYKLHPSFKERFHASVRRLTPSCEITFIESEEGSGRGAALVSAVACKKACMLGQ
Assay: Glucokinase activation assay (PK/LDH-coupled, NADH depletion at 340 nm)
Type: biochemical
Settings: 5 mM glucose, 2.5 mM ATP, pH 7.1, room temperature, values given as a range where N>1; for Emax: fitted % max activation, read-out: Maximum Activation
Protocol: Full-length glucokinase (beta cell isoform) was His-tagged at N-terminus and purified by a Ni column followed by size exclusion chromatography. A 320 mL column was packed in house using Pharmacia Superdex75 preparation grade resin. Glucose was obtained from Calbiochem (San Diego, Calif.) and other reagents were purchased from Sigma (St. Louis, Mo.).
All assays were performed in a Corning 384-well plate using Spectramax PLUS spectrophotometer (Molecular Devices, Sunnyvale, Calif.) at room temperature. The final assay volume was 40 μL. The buffer conditions used in this assay were as follows: 50 mM HEPES, 5 mM glucose, 2.5 mM ATP, 3.5 mM MgCl2, 0.7 mM NADH, 2 mM dithiothreitol, 1 Unit/mL PK/LDH, 0.2 mM phosphoenolpyruvate, and 25 mM KCl. The buffer pH was 7.1. The test compound in DMSO solution was added to the buffer and mixed by a plate shaker for 7.5 minutes. The final concentration of DMSO introduced into the assay was 0.25%.
Glucokinase was added to the buffer mixture to initiate the reaction in the presence and absence of compound. The reaction was monitored by absorbance at 340 nm due to the depletion of NADH. The initial reaction velocity was measured by the slope of a linear time course of 0-300 seconds. The percentage of activation was calculated by the following equation:
% Activation=(Va/Vo−1)×100;
wherein each of Va and Vo is defined as the initial reaction velocity in the presence and absence of the tested compound, respectively.
To determine the EC50 (half maximal effective concentration) and % maximum activation, compounds were serially diluted in DMSO by 3-fold. The GK activities were measured as a function of compound concentrations. The data were fitted to the equation below to obtain the EC50 and % max activation values:
Va/Vo=1+(% max activation/100)/(1+EC50/compound concentration)

Emax [%]	EC50 [nM]	Structure (SMILES)
76 to 100	5000 to 10500	Cc1cnc(NC(=O)[C@H](CC2CCCC2)n2ccc(C(F)(F)F)cc2=O)cn1 [Example 1, (S)-3-cyclopentyl-N-(5-methylpyrazin-2-yl)-2-(2-oxo-4-(trifluoromethyl)pyridin-1(2H)-yl)propanamide]
0	> 100000	Cc1ccc(NC(=O)[C@H](CC2CCCC2)n2cccc(C(F)(F)F)c2=O)nc1 [Example 2, (S)-3-cyclopentyl-N-(5-methylpyridin-2-yl)-2-(2-oxo-3-(trifluoromethyl)pyridin-1(2H)-yl)propanamide]
55 to 79	1000 to 2500	Cc1ccc(NC(=O)[C@H](CC2CCCC2)n2ccc(C(F)(F)F)cc2=O)nc1 [Example 3, (S)-3-cyclopentyl-N-(5-methylpyridin-2-yl)-2-(2-oxo-4-(trifluoromethyl)pyridin-1(2H)-yl)propanamide]
72 to 106	4600 to 22400	Cn1ccc(NC(=O)[C@H](CC2CCCC2)n2ccc(C(F)(F)F)cc2=O)n1 [Example 4, (S)-3-cyclopentyl-N-(1-methyl-1H-pyrazol-3-yl)-2-(2-oxo-4-(trifluoromethyl)pyridin-1(2H)-yl)propanamide]
0	> 100000	Cc1cnc(NC(=O)[C@H](CC2CCCC2)n2cccc(C(F)(F)F)c2=O)cn1 [Example 5, (S)-3-cyclopentyl-N-(5-methylpyrazin-2-yl)-2-(2-oxo-3-(trifluoromethyl)pyridin-1(2H)-yl)propanamide]
88 to 105	200 to 800	Cc1ccc(NC(=O)[C@H](CC2CCCC2)n2cc(C(F)(F)F)ccc2=O)nc1 [Example 6, (S)-3-cyclopentyl-N-(5-methylpyridin-2-yl)-2-(2-oxo-5-(trifluoromethyl)pyridin-1(2H)-yl)propanamide]
118 to 152	1600 to 3700	Cc1cnc(NC(=O)[C@H](CC2CCCC2)n2cc(C(F)(F)F)ccc2=O)cn1 [Example 7, (S)-3-cyclopentyl-N-(5-methylpyrazin-2-yl)-2-(2-oxo-5-(trifluoromethyl)pyridin-1(2H)-yl)propanamide]
110 to 128	1700 to 3200	O=C(Nc1cnccn1)[C@H](CC1CCCC1)n1cc(C(F)(F)F)ccc1=O [Example 8, (S)-3-cyclopentyl-2-(2-oxo-5-(trifluoromethyl)pyridin-1(2H)-yl)-N-(pyrazin-2-yl)propanamide]
95 to 106	1100 to 1400	O=C(Nc1ccncn1)[C@H](CC1CCCC1)n1cc(C(F)(F)F)ccc1=O [Example 9, (S)-3-cyclopentyl-2-(2-oxo-5-(trifluoromethyl)pyridin-1(2H)-yl)-N-(pyrimidin-4-yl)propanamide]
121 to 148	1500 to 2100	CCn1ccc(NC(=O)[C@H](CC2CCCC2)n2cc(C(F)(F)F)ccc2=O)n1 [Example 10, (S)-3-cyclopentyl-N-(1-ethyl-1H-pyrazol-3-yl)-2-(2-oxo-5-(trifluoromethyl)pyridin-1(2H)-yl)propanamide]
108 to 141	700 to 1300	O=C(Nc1ccn(Cc2ccccc2)n1)[C@H](CC1CCCC1)n1cc(C(F)(F)F)ccc1=O [Example 11, (S)—N-(1-benzyl-1H-pyrazol-3-yl)-3-cyclopentyl-2-(2-oxo-5-(trifluoromethyl)pyridin-1(2H)-yl)propanamide]
109 to 110	13600 to 20800	O=C(Nc1ncccn1)[C@H](CC1CCCC1)n1cc(C(F)(F)F)ccc1=O [Example 12, (S)-3-cyclopentyl-2-(2-oxo-5-(trifluoromethyl)pyridin-1(2H)-yl)-N-(pyrimidin-2-yl)propanamide]
106	14000	O=C(Nc1cnccn1)[C@H](CC1CCCC1)n1ccc(C(F)(F)F)cc1=O [Example 13, (S)-3-cyclopentyl-2-(2-oxo-4-(trifluoromethyl)pyridin-1(2H)-yl)-N-(pyrazin-2-yl)propanamide]
58	5800	O=C(Nc1ccncn1)[C@H](CC1CCCC1)n1ccc(C(F)(F)F)cc1=O [Example 14, (S)-3-cyclopentyl-2-(2-oxo-4-(trifluoromethyl)pyridin-1(2H)-yl)-N-(pyrimidin-4-yl)propanamide]
92	9400	CCn1ccc(NC(=O)[C@H](CC2CCCC2)n2ccc(C(F)(F)F)cc2=O)n1 [Example 15, (S)-3-cyclopentyl-N-(1-ethyl-1H-pyrazol-3-yl)-2-(2-oxo-4-(trifluoromethyl)pyridin-1(2H)-yl)propanamide]
125	2500	Cn1ccc(NC(=O)[C@H](CC2CCCC2)n2cc(C(F)(F)F)ccc2=O)n1 [Example 16, (S)-3-cyclopentyl-N-(1-methyl-1H-pyrazol-3-yl)-2-(2-oxo-5-(trifluoromethyl)pyridin-1(2H)-yl)propanamide]
57	400	O=C(Nc1ccc(C(F)(F)F)cn1)[C@H](CC1CCCC1)n1cc(C(F)(F)F)ccc1=O [Example 17, (S)-3-cyclopentyl-2-(2-oxo-5-(trifluoromethyl)pyridin-1(2H)-yl)-N-(5-(trifluoromethyl)pyridin-2-yl)propanamide]
103	9300	O=C(Nc1ccon1)[C@H](CC1CCCC1)n1cc(C(F)(F)F)ccc1=O [Example 18, (S)-3-cyclopentyl-N-(isoxazol-3-yl)-2-(2-oxo-5-(trifluoromethyl)pyridin-1(2H)-yl)propanamide]
89	500	O=C(Nc1ccc2ccccc2n1)[C@H](CC1CCCC1)n1cc(C(F)(F)F)ccc1=O [Example 19, (S)-3-cyclopentyl-2-(2-oxo-5-(trifluoromethyl)pyridin-1(2H)-yl)-N-(quinolin-2-yl)propanamide]
114	1200	COc1cnc(NC(=O)[C@H](CC2CCCC2)n2cc(C(F)(F)F)ccc2=O)cn1 [Example 20, (S)-3-cyclopentyl-N-(5-methoxypyrazin-2-yl)-2-(2-oxo-5-(trifluoromethyl)pyridin-1(2H)-yl)propanamide]
113	300	O=C(Nc1ccccn1)[C@H](CC1CCCC1)n1cc(C(F)(F)F)ccc1=O [Example 21, (S)-3-cyclopentyl-2-(2-oxo-5-(trifluoromethyl)pyridin-1(2H)-yl)-N-(pyridin-2-yl)propanamide]
130	20200	Cc1cnc(NC(=O)[C@H](CC2CCCC2)n2cnc(C(F)(F)F)cc2=O)cn1 [Example 22, (S)-3-cyclopentyl-N-(5-methylpyrazin-2-yl)-2-(6-oxo-4-(trifluoromethyl)pyrimidin-1(6H)-yl)propanamide]
77	2600	Cc1ccc(NC(=O)[C@H](CC2CCCC2)n2cnc(C(F)(F)F)cc2=O)nc1 [Example 23, (S)-3-cyclopentyl-N-(5-methylpyridin-2-yl)-2-(6-oxo-4-(trifluoromethyl)pyrimidin-1(6H)-yl)propanamide]
106	27100	Cn1ccc(NC(=O)[C@H](CC2CCCC2)n2cnc(C(F)(F)F)cc2=O)n1 [Example 24, (S)-3-cyclopentyl-N-(1-methyl-1H-pyrazol-3-yl)-2-(6-oxo-4-(trifluoromethyl)pyrimidin-1(6H)-yl)propanamide]

From patent US20110130365A1, “Fluorinated Heteroaryls” (priority 2008, published 2011)
